From US20100292509A1, “VEGFC PRODUCTION PROMOTER” (Shiseido Company, Ltd, priority 2008, published 2010)

Test system: VEGFC
Conditions: HaCaT cells; 7% by weight drug solution added at 1/100, 1/1000 or 1/10000 the amount of culture liquid; 48 hours; solvent control assigned 100; FIG. 1
Method: HaCaT cells, which are cultured cells derived from human epidermis (German Cancer Research Center, Heidelberg, Germany), were cultured in DMEM containing 10% FBS and seeded into a 24-well plate at 15×10^4 cells per well. After about 24 hours, the medium was replaced with serum-free DMEM followed by culturing for 24 hours. Subsequently, a solution of a candidate drug dissolved in water to a concentration of 7% by weight was added in an amount equal to 1/100, 1/1000 or 1/10000 the amount of culture liquid followed by additional culturing. 48 hours after adding the drug, the culture supernatant was recovered and the amount of VEGFC in the culture supernatant was quantified by ELISA (R&D Systems) in accordance with the protocol. In addition, Alamar Blue (TREK Diagnostic Systems) was added to the cells following recovery of culture supernatant followed by measurement of the number of cells as fluorescence intensity (Ex: 544 nm, Em: 590 nm). The amount of VEGFC expressed per cell was determined by dividing the amount of VEGFC in the culture supernatant by the fluorescence value of the Alamar Blue. A solvent in the form of 70% EtOH was added to the cells instead of drug for use as a control, and the value thereof was assigned a value of 100. In addition, 5% FBS was used as a positive control.

With `CNC(=O)[C@H]1CC[C@H](CN)CC1.Cl` [tranexamic acid methylamide hydrochloride] the “VEGFC induction activity (amount of VEGFC expressed per cell)” value was “dose-dependent VEGFC induction activity that exceeded that of the control”.
